# Test results reported in patent US12070458B2, “Therapeutic agent composition and method of use, for treatment of mild congnitive impairment, depression, and psychological disorders” (priority 2018, dated 2024).
# Tested on: scopolamine-induced memory impairment
# Experiment: Morris Water Maze, scopolamine-induced memory impairment
# Assay type: in vivo, Wistar rats
# Conditions: 20 mg/kg; daily, oral; scopolamine 0.5 mg/kg i.p.
structure (smiles),measurement,value
"O=C1NCC(=O)N2CCC[C@@H]12 [cPG, cyclic Prolyl Glycine]",cognitive impairment induced by scopolamine (time to platform),significantly reversed
